# From US8748476B2, “Darifenacin for use in the treatment of urgency induced by overactive bladder” (Warner Chilcott Company, LLC, priority 2002, dated 2014)
# Marks after values point to notes of the source that are not given here.
# Experiments:
# [1] = tested on: OAB Wet patients (subjects with a diagnosis of overactive bladder); experiment: Clinical Study 1: multicentre trial, diary record of urgency episodes and severity of urgency (VAS); assay type: in vivo, human; settings: for No of episodes of urgency/day, Median change from baseline / No of episodes of urgency/day, Median % Change from baseline: 12 weeks of treatment; for No of episodes of urgency/day, Median change from baseline: placebo −1.2; for No of episodes of urgency/day, Median % Change from baseline: placebo −15.7; for No of episodes of urgency/day, Median difference from placebo / Severity of urgency/day, Median difference from placebo: corrected for placebo; for No of episodes of urgency/day, Median difference from placebo / Severity of urgency/day, Median change from baseline / Severity of urgency/day, Median difference from placebo: 12 weeks; for Severity of urgency/day, Median change from baseline: visual analogue scale (mild to severe), placebo −3.9; for Severity of urgency/day, Median difference from placebo: visual analogue scale
# Experimental: Two novel methods for the assessment of urgency were used. The first was for use in a large scale clinical trial, and the second was for use in clinical laboratory studies. In both of these studies, darifenacin was administered as its hydrobromide salt. It was presented in slow release matrix tablets of the type described in U.S. Pat. No. 6,106,864, particularly Example 3. Tablets were administered once daily (o.d.). In this study, OAB Wet patients recorded each episode of urgency per day and the overall severity of urgency for each day in a diary. The severity of urgency was recorded by the use of a visual analogue scale (VAS) where the anchor points were mild and severe. Darifenacin (as hydrobromide salt; 7.5 mg, 15 mg and 30 mg of the active moiety, o.d.) and placebo were evaluated in subjects with a diagnosis of overactive bladder in a multicentre trial and symptoms of urgency were assessed using the VAS at baseline and at the end of the study (12 weeks of treatment). 108 patients (14 male, 94 female) received 7.5 mg; 107 patients (15 male, 92 female) received 15 mg; 114 patients (16 male, 98 female) received 30 mg; and 108 patients (18 male, 90 female) received placebo.
# [2] = tested on: subjects with symptoms of urgency (mixture of OAB Wet and OAB Dry sufferers); experiment: Clinical Study 2: warning time between onset of urgency and need to micturate, measured with a modified stop-watch; assay type: in vivo, human
# Experimental: Two novel methods for the assessment of urgency were used. The first was for use in a large scale clinical trial, and the second was for use in clinical laboratory studies. In both of these studies, darifenacin was administered as its hydrobromide salt. It was presented in slow release matrix tablets of the type described in U.S. Pat. No. 6,106,864, particularly Example 3. Tablets were administered once daily (o.d.). This study used a novel method for measuring the time between the first onset of the urgency and the need to micturate, which is known as the ‘warning time’. A modified stop-watch was used which required the subject to press a button at the onset of urge and a second button when they felt they needed to micturate. Darifenacin (as the hydrobromide salt; 30 mg o.d.) and placebo were evaluated in subjects with symptoms of urgency. The subjects were a mixture of OAB Wet and OAB Dry sufferers. The ‘warning time’ was assessed at baseline and following 2 weeks of treatment using the modified stop watch. 36 patients (29 female, 7 male) received darifenacin; and 36 patients (22 female, 14 male) received placebo.
# [3] = 15 mg o.d., baseline 8.6, P < 0.05
# [4] = 30 mg o.d., baseline 8.4, P < 0.001
# [5] = 7.5-30 mg, effect significantly greater than that produced by placebo
# [6] = 15 mg o.d., baseline 56.2, P < 0.05
# [7] = 30 mg o.d., baseline 53.5, P < 0.05
# [8] = 30 mg o.d., 2 weeks of treatment
structure (smiles),measurement,setting,value
"NC(=O)C(c1ccccc1)(c1ccccc1)[C@@H]1CCN(CCc2ccc3c(c2)CCO3)C1 [Darifenacin, (S)-2-(1-[2-(2,3-dihydrobenzofuran-5-yl)ethyl]-3-pyrrolidinyl)-2,2-diphenyl-acetamide]","No of episodes of urgency/day, Median change from baseline","[1]; 7.5 mg o.d., baseline 8.5",−1.8 episodes of urgency/day
same,"No of episodes of urgency/day, Median % Change from baseline",[1]; 7.5 mg o.d.,−29.2%
same,"No of episodes of urgency/day, Median change from baseline",[1]; [3],−2.3* episodes of urgency/day
same,"No of episodes of urgency/day, Median % Change from baseline",[1]; 15 mg o.d.,−26.9%
same,"No of episodes of urgency/day, Median change from baseline",[1]; [4],−3*** episodes of urgency/day
same,"No of episodes of urgency/day, Median % Change from baseline",[1]; 30 mg o.d.,−33.1%
same,Effect on number of episodes of urgency,[1]; [5],dose-related reduction
same,Effect on overall severity of urgency,[1]; [5],dose-related reduction
same,Effect on the symptom of urgency in subjects with overactive bladder (conclusion),[1]; conclusion drawn from both clinical studies,clinically significant attenuation
same,"No of episodes of urgency/day, Median difference from placebo","[1]; 7.5 mg o.d., baseline 8.5",−0.5 episodes of urgency/day
same,"No of episodes of urgency/day, Median difference from placebo",[1]; [3],−1.1* episodes of urgency/day
same,"No of episodes of urgency/day, Median difference from placebo",[1]; [4],−1.4*** episodes of urgency/day
same,"Severity of urgency/day, Median change from baseline","[1]; 7.5 mg o.d., baseline 53.2",−7
same,"Severity of urgency/day, Median change from baseline",[1]; [6],−7*
same,"Severity of urgency/day, Median change from baseline",[1]; [7],−9.4*
same,"Severity of urgency/day, Median difference from placebo","[1]; 7.5 mg o.d., baseline 53.2",−2.5
same,"Severity of urgency/day, Median difference from placebo",[1]; [6],−3.8*
same,"Severity of urgency/day, Median difference from placebo",[1]; [7],−5.5*
same,Effect on warning time compared with placebo,[2]; [8],significant increase
same,"Warning time, Median difference from placebo",[2]; [8],4.3 min
same,"Warning Time, Week 2 (Median)","[2]; 30 mg o.d., 2 weeks of treatment, baseline median 4.7, placebo week 2 4.1, P < 0.01",8.4** Min
same,Response of OAB Wet and OAB Dry subjects,[2]; both OAB Wet and OAB Dry subjects,responded to treatment
